Measured values from PMC12186255, “Discovery and Characterization of Small Molecule Inhibitors Targeting Exonuclease 1 for Homologous Recombination-Deficient Cancer Therapy” (ACS Chemical Biology, 2025).

Key:
EXO1 = molecular target: T1, EXO1 (Homo sapiens, UniProt Q9UQ84); test: Thermal shift assay; type: binding; settings: maximum shift in Tm of EXO1 vs DMSO, increasing inhibitor concentrations
T1 construct: made in house
T1 sequence (Q9UQ84 1-846): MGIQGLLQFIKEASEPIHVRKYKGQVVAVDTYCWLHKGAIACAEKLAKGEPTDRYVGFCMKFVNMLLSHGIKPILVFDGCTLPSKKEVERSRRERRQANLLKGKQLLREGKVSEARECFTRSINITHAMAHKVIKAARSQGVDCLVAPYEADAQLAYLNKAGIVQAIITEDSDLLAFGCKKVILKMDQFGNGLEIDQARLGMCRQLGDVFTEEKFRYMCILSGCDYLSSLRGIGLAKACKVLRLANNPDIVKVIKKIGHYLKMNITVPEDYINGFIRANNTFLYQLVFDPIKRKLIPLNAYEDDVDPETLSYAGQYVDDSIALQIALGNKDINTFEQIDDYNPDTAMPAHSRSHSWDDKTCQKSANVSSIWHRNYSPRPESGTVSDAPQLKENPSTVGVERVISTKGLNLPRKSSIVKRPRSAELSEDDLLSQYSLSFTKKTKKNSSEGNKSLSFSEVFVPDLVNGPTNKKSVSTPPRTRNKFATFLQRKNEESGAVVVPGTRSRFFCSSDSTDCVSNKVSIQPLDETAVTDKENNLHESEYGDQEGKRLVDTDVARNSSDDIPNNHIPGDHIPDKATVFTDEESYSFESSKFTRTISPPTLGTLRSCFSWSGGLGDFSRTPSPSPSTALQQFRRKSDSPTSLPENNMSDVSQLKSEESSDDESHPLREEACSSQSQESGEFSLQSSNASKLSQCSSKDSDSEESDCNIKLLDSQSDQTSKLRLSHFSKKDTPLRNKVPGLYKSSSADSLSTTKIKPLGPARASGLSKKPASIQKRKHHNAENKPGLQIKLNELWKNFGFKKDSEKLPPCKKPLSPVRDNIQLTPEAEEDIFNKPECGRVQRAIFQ
Experimental: To assess for changes in the thermal stability of EXO1 protein in response to treatment with candidate small molecule inhibitors or DMSO (vehicle control), the thermal shift assay (Applied Biosystems Protein Thermal Shift Dye Kit, Cat. #4461146) was utilized. The protein melt reaction mix consisted of freshly prepared 10× thermal shift dye, purified EXO1 enzyme (1 μg/uL), thermal shift buffer, DMSO or inhibitors, and sterilized Milli-Q water. A drug-free supermix was premade and dispensed in 96-well PCR plates followed by the addition of DMSO or inhibitors with increasing concentration. The reaction plate was heated from 10 to 98 °C at a rate of 0.5° per 10 s cycle, and the fluorescence intensity of individual wells was measured at 490/530 nm using a BioRad CFX96 Touch Real-Time PCR System. The fluorescence measurements of three technical replicates per treatment condition were then averaged to calculate melting temperature shift (ΔT m) as a readout for compound binding affinity.

SF-295 = test: Cell line drug profiling, CellTiter Glo; type: cell-based, human; settings: Homo sapiens, SF-295, 72 h
Experimental: We tested the cytotoxicity of representative compounds from the seven EXO1i scaffolds against a subset of the NCI-60 cell line panel along with three additional pancreatic cell lines (FG, AsPC1, and CaPan2). In general, cells were seeded in 384-well tissue culture-treated plates overnight and treated with various concentrations of each hit compound (a serial 3-fold dilution from 50 μM for all tested hits). Each concentration was performed in duplicate. Cell viability was then measured by CellTiter Glo (Promega) after 72 h of treatment.

[1] = system: MDA-MB-436 (BRCA1−) and MDA-MB-436 (BRCA1+) cells; test: Annexin V apoptosis assay; type: cell-based, human; settings: 5 days of treatment
Experimental: After 24 h of incubation, testing compounds were added to cells at final concentrations of 50, 25, 12, and 5 μM using the Echo Liquid Handler (Beckman). Subsequently, 10 μL of the NIR-labeled Annexin V apoptosis reagent (Cat. #4768, Sartorius, Germany) was added to each well at a 1:200 final dilution. The plates were then transferred to the Incucyte Live-Cell Analysis System for real-time apoptosis monitoring over a 5 day period. Imaging was conducted using a 10× objective with phase-contrast and near-infrared (NIR) fluorescent channels, capturing scans every 2 h. Image analysis was performed with the Incucyte software, and the total NIR fluorescence intensity was quantified to evaluate the apoptosis.

[2] = system: MDA-MB-436 (BRCA1+) tumors; test: In vivo tumor growth assay, xenograft; set-up: species or system mouse; settings: p = 0.64
Experimental: (§1) The tumor growth rate of human breast cancer cells with or without treatment with EXO1i was evaluated by using a xenograft breast cancer mouse model. […] The tumor volume in each mouse was measured twice a week and calculated using the formula (length × width × width)/2 (mm^3). When the tumors reached a volume of 1000 mm^3, the mice were euthanized. Animal studies were conducted in accordance with an approved protocol adhering to the IACUC policies and procedures of the City of Hope.

[3] = system: MDA-MB-436 (BRCA1−) tumors; test: In vivo tumor growth assay, xenograft; set-up: species or system mouse; settings: p = 0.018
Experimental: as §1

[4] = 8.5 mg/kg daily intraperitoneal

Structure (SMILES)	ΔT m (EXO1)	IC50 (SF-295)	apoptosis (Annexin V fluorescence intensity), BRCA1− vs BRCA1+ [1]	average growth rate of BRCA1+ tumors ([2]; 8.5 mg/kg body weight/day intraperitoneal, NSG mice, vehicle 16.6)	tumor volumes compared with vehicle, BRCA1+ tumors [2, 4]	average growth rate of BRCA1– tumors ([3]; 8.5 mg/kg body weight/day intraperitoneal, NSG mice, vehicle […])	tumor volumes compared with vehicle, BRCA1- mouse models [3, 4]
COC(=O)c1nc(-c2ccc(OC)cc2)nc(O)c1O [C200]	~1 °C	> 50 µM					
Cc1cccc(N2CCN(c3ccc(NS(=O)(=O)c4ccccc4)c(C(=O)O)c3)CC2)c1C [F684]			substantially stronger killing effect in a BRCA1– context	15.1 %/day	no effect	11.3 %/day	significantly reduced tumor volumes
